Earlier results, collected in patent publication US11077045B2, “Blood microperfusion to skin by Shilajit” (Natreon, Inc., priority 2018, dated 2021).

Legend:
[1] = low-dose administration, rats
[2] = transdermal preparation, subjects with diabetes

N=C(N)NCCC[C@H](N)C(=O)O [L-arginine]
microperfusion of rat skin [1]: increase microperfusion | blood flow in feet [2]: improved
